Reference: ChEMBL document CHEMBL1649521, “Influence of the cytochrome P450 2B6 genotype on population pharmacokinetics of efavirenz in human immunodeficiency virus patients” (Antimicrob Agents Chemother, 2009)

Columns and labels:
[1] = Apparent oral volume of distribution in patient with HIV infection at 600 mg/kg QD; assay type: ADME, organism-based; design: dose 600 mg/kg, route oral; conditions: human, in vivo, read-out: Vc/F
[2] = Apparent oral clearance in patient with HIV infection at 600 mg/kg, […] QD; assay type: ADME, organism-based; design: dose 600 mg/kg, route oral; conditions: human, in vivo

Vd/F [1]: 295 L
CL/F [2]: 154 mL/min
SMILES: O=C1Nc2ccc(Cl)cc2[C@@](C#CC2CC2)(C(F)(F)F)O1 [EFAVIRENZ]
